This data set in a line: Pharmacokinetics (PK) study, plasma exposure of PBA after oral dosing of PBA analogues. Format: in vivo, SD rats. Here is the method: Pharmacokinetics (PK) study was carried out to evaluate the plasma exposure of two PBA analogues (ATX-2022-018 and ATX-2022-034), when dosed orally (PO) at 22.5 mg/kg in 50% Propylene glycol. Dosing was done in overnight fasted SD rats (n=6). After oral (PO) administration blood was collected by serial bleeding at 8 different time points in heparinized tubes. Blood samples were centrifuged at 10,000 rpm for 5 min. at 4° C. to obtain the plasma, which were aspirated into separate labeled tubes and stored at −80° C. Extraction solvent was added to plasma (150 μL 0.1% acetic acid in water: 0.1% acetic acid Methanol, 20:80) was vortexed and shaken on shaker for 10 minutes, centrifuged at 10,000 rpm for 10 minutes at 4° C. Supernatant was used for LC-MS analysis. Parent drug generated that is PBA was monitored by LC-MS (API3200).
Details of the LC column and mobile phase used for the analysis is provided below: • Column: Gemini NX C18, 50 mm*4.6 mm*3.5μ • Mobile Phase: A: 0.1% Acetic in Water • B: 0.1% Acetic acid in Methanol • Flow rate: 0.600 mL/min, gradient program
Acetonitrile and plasma calibration curves were generated and percentage of drug recovery from plasma determined. Quantitative analysis was done by liquid chromatography tandem mass spectrometer (API3200 LC-MS/MS). Cmax, Tmax, AUC and t½ were calculated using Graph Pad PRISM version 5.04.

[1] abbreviates: SD, rat, in vivo, po, 22.5 mg/kg.
Setting [2] is: PBA monitored in plasma by LC-MS, overnight fasted SD rats, PO 22.5 mg/kg in 50% Propylene glycol.

Read-outs that look alike come from different tables or passages of the source.

A word on the Cmax: it is the maximum level reached in the sampled fluid or tissue. Usually MRT stands for the average time that molecules of a dose stay in the body. The Tmax is the time from dosing to the highest level. As for `O=C(CCCc1ccccc1)OC[C@H](OC(=O)CCCc1ccccc1)[C@@H](COC(=O)CCCc1ccccc1)OC(=O)CCCc1ccccc1` [ERYTHRITOL ANALOG OF PBA, (2R,3S)-butane-1,2,3,4-tetrayl tetrakis(4-phenylbutanoate)], under setting [1], the AUC was 104,814 nM · h, the “CHANGE of AUC (Increase)” value is “Increase 3-fold”, the “CHANGE of CL (Decrease)” value was “Decrease 2.7-fold” and the “CHANGE of Cmax (Increase)” value was “Increase 4-fold”. For the same compound, under setting [1], the “CHANGE of MRT (Increase)” value is reported as “Increase 1.5-fold”, the “CHANGE of Vd (Decrease)” value is listed as “Decrease 2.75-fold”, the CL is 225 mL/h and the Cmax worked out at 51.3 µM. Further, under setting [1], the mean residence time (MRT) stood at 36 min, the Tmax was determined as 12 min and the Vd is given as 2,600 ml.
`O=C(CCCc1ccccc1)OC[C@H](OC(=O)CCCc1ccccc1)[C@H](COC(=O)CCCc1ccccc1)OC(=O)CCCc1ccccc1` [THREITOL ANALOG OF PBA, (2S,3S)-butane-1,2,3,4-tetrayl-tetrakis(4-phenylbutanoate), reference compound]: under setting [2], the AUC is listed as 37,594 nM · h, the CL came to 600 mL/h, the mean residence time MRT stood at 24 min and the Tmax was 18 min. For the same compound, under setting [2], the Vd is 7,161 ml. Further, under “PBA monitored in plasma by LC-MS, overnight fasted SD rats, PO 22.5 mg/kg in 50% Propylene glycol, read-out: Cmax”, the highest concentration (Cmax) was determined as 12.5 µM.

The record behind these values is patent publication US20250382255A1, “ERYTHRITOL ESTER OF PHENYL BUTYRIC ACID” (AAYAM THERAPEUTICS LLC, priority 2022, published 2025).
